The values below come from patent publication US12495798B2, “Nicotinamide compound and herbicidal composition comprising compound” (KOREA RESEARCH INSTITUTE OF CHEMICAL TECHNOLOGY, priority 2019, dated 2025).

Holding throughout (assay type): in vivo
Assay [1] has as its system sorghum. Nature of the assay: Herbicidal activity test against upland field weeds (soil treatment test). Details: key to Soil treatment herbicidal activity, Sorghum: 0 (no control); 100 (complete control). As to conditions: 50 g ai/ha, scale 0 (no control) to 100 (complete control). A digest of the protocol:
(§1)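 Pre-emergence test: seeds or rootstocks were sown in fertilized sandy loam, and the next day the soil surface was sprayed with compound at 50 or 75 g a.i./ha in 50% acetone/0.1% Tween-20. Plants were grown in a greenhouse (30±5 °C, 14/10 h light/dark), then visually scored 0–100 against untreated at 14 d (21 d if needed).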

Assay [2] deals with crabgrass. Nature of the assay: Herbicidal activity test against upland field weeds (foliar treatment test). As to conditions: Digitaria sanguinalis, 50 g ai/ha, scale 0-100. A digest of the protocol:
(§2)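 Weeds were raised from seed or rootstocks in horticultural soil in a greenhouse (30±5° C., 14/10 h light/dark), then foliage was hand-sprayed with compound at 50 or 75 g a.i./ha in 50% acetone with 0.1% Tween-20. Control was scored visually 0–100 against untreated plants after 14 days, or 21 if needed.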

Assay [3] deals with velvetleaf. The assay is described as above. Particulars: Abutilon theophrasti, 50 g ai/ha, scale 0-100, read-out: Foliar treatment herbicidal activity, velvet leaf. A digest of the protocol: as §2
The subject of assay [4] is velvetleaf. Nature of the assay: Herbicidal activity test against upland field weeds (soil treatment test). Details: key to Soil treatment herbicidal activity, velvet leaf: 0 (no control); 100 (complete control). As to conditions: 50 g ai/ha, scale 0 (no control) to 100 (complete control). A digest of the protocol: as §1
Assay [5] relates to quack grass. The description is as above. Further details: key to Soil treatment herbicidal activity, quack grass: 0 (no control); 100 (complete control). Particulars: 50 g ai/ha, scale 0 (no control) to 100 (complete control). A digest of the protocol:
as §1

Assay [6] has as its system black nightshade. The assay is described as above. Particulars: Solanum nigrum, 50 g ai/ha, scale 0 (no control) to 100 (complete control). An outline of the steps:
as §1

The test system of assay [7] is bindweed. As to the kind of experiment: Herbicidal activity test against upland field weeds (foliar treatment test). As to conditions: 50 g ai/ha, scale 0-100. An outline of the steps: as §2
The subject of assay [8] is barnyard grass. Described as above. As to conditions: 50 g ai/ha, scale 0-100. Details: key to Foliar treatment herbicidal activity, barnyard grass: 0 (no control); 100 (complete control). An outline of the steps: as §2
Assay [9] concerns fall panicum. As to the kind of experiment: Herbicidal activity test against upland field weeds (soil treatment test). Further details: key to Soil treatment herbicidal activity, Fall panicum: 0 (no control); 100 (complete control). As to conditions: 50 g ai/ha, scale 0 (no control) to 100 (complete control). A digest of the protocol:
as §1

The subject of assay [10] is black nightshade. Nature of the assay: Herbicidal activity test against upland field weeds (foliar treatment test). Further details: key to Foliar treatment herbicidal activity, black nightshade: 0 (no control); 100 (complete control). As to conditions: 50 g ai/ha, scale 0-100. A digest of the protocol:
as §2

Assay [11] concerns crabgrass. Nature of the assay: Herbicidal activity test against upland field weeds (soil treatment test). As to conditions: 50 g ai/ha, scale 0 (no control) to 100 (complete control). Further details: key to Soil treatment herbicidal activity, Crabgrass: 0 (no control); 100 (complete control). A digest of the protocol:
as §1

Assay [12] relates to cocklebur. As to the kind of experiment: Herbicidal activity test against upland field weeds (foliar treatment test). As to conditions: Xanthium strumarium, 50 g ai/ha, scale 0-100. An outline of the steps: as §2
Assay [13] relates to sorghum. Described as above. As to conditions: Sorghum, 50 g ai/ha, scale 0-100. A digest of the protocol: as §2
Assay [14] has as its system barnyard grass. Nature of the assay: Herbicidal activity test against upland field weeds (soil treatment test). Particulars: 50 g ai/ha, scale 0 (no control) to 100 (complete control). Details: key to Soil treatment herbicidal activity, barnyard grass: 0 (no control); 100 (complete control). A digest of the protocol:
as §1

In assay [15] the test system is indian jointvetch. As to the kind of experiment: Herbicidal activity test against upland field weeds (foliar treatment test). Particulars: 50 g ai/ha, scale 0-100. An outline of the steps: as §2
Assay [16] relates to indian jointvetch. As to the kind of experiment: Herbicidal activity test against upland field weeds (soil treatment test). Details: key to Soil treatment herbicidal activity, Indian jointvetch: 0 (no control); 100 (complete control). As to conditions: 50 g ai/ha, scale 0 (no control) to 100 (complete control). A digest of the protocol:
as §1

In assay [17] the test system is bindweed. The assay is described as above. Particulars: 50 g ai/ha, scale 0 (no control) to 100 (complete control). Further details: key to Soil treatment herbicidal activity, Bindweed: 0 (no control); 100 (complete control). An outline of the steps: as §1
The test system of assay [18] is fall panicum. As to the kind of experiment: Herbicidal activity test against upland field weeds (foliar treatment test). As to conditions: Panicum dichotomiflorum, 50 g ai/ha, scale 0-100. An outline of the steps:
as §2

Assay [19] concerns quack grass. Described as above. As to conditions: 50 g ai/ha, scale 0-100. Further details: key to Foliar treatment herbicidal activity, quack grass: 0 (no control); 100 (complete control). A digest of the protocol: as §2
Assay [20] relates to cocklebur. As to the kind of experiment: Herbicidal activity test against upland field weeds (soil treatment test). Further details: key to Soil treatment herbicidal activity, Cocklebur: 0 (no control); 100 (complete control). Particulars: 50 g ai/ha, scale 0 (no control) to 100 (complete control). A digest of the protocol: as §1

Consider `Cn1nnc(CSCc2nc(C(F)F)ccc2C(=O)N(C(=O)c2ccccc2)c2nnnn2C)n1` [Compound No. 2-112, N-benzoyl-6-(difluoromethyl)-N-(1-methyl-1H-tetrazol-5-yl)-2-((((2-methyl-2H-tetrazol-5-yl)methyl)thio)methyl)nicotinamide], for which the “Soil treatment herbicidal activity, Sorghum” value in [1] amounted to 0. The pest or weed control at 50 g/ha in [2] worked out at 90%; in assay [3], 90%; in [6] it was 90%; in assay [7], 98%; in assay [12], 98%; in assay [15], 95%. The pest or weed control at 50 g/ha in assay [18] was found to be 70%. In addition, the “Soil treatment herbicidal activity, velvet leaf” value in assay [4] turned out to be 100. In assay [5], the “Soil treatment herbicidal activity, quack grass” value came out at 0. The “Foliar treatment herbicidal activity, barnyard grass” value in [8] stood at 100. Moreover, the “Soil treatment herbicidal activity, Fall panicum” value in assay [9] is recorded as 0. Moreover, the “Foliar treatment herbicidal activity, black nightshade” value in assay [10] was found to be 100. Besides, the “Soil treatment herbicidal activity, Crabgrass” value in assay [11] is recorded as 0. In assay [13], this compound yielded a plant injury at 50 g/ha of 50%. Moreover, in assay [14], the “Soil treatment herbicidal activity, barnyard grass” value is recorded as 0. Moreover, the “Soil treatment herbicidal activity, Indian jointvetch” value in [16] is reported as 100. Moreover, in assay [17], the “Soil treatment herbicidal activity, Bindweed” value is reported as 0. In addition, the “Foliar treatment herbicidal activity, quack grass” value in [19] turned out to be 0. In [20], the “Soil treatment herbicidal activity, Cocklebur” value is 0.
